The text below walks through data of US9012493B2, “1-heterodiene derivative and pest control agent” (Nippon Soda Co., Ltd., priority 2009, dated 2015).

Common to all, as to type: in vivo
The test system of test [1] is Sweetpotato Whitefly (Bemisia Tabaci). Nature of the test: Efficacy test against sweetpotato whitefly, sprayed tomato leaf. As to conditions: 125 ppm, emulsifiable concentrate diluted with water, adults (type B), after 2 days, 25° C. On the procedure: (§1) Test Examples of the pest control agent thus obtained according to the present invention are shown below. In respective Test Examples, the insecticidal rate (%) was determined by the following calculation equation. Insecticidal rate (%)=(number of dead pests/number of released pests)×100
The emulsifiable concentrate obtained according to Formulation of Formulation Example 2 was diluted with water so as to control the concentration of the compound to 125 ppm. The diluted solution was sprayed over a tomato leaf obtained by cutting and then air-dried. Using absorbent cotton, the leaf was fixed to a flask so that a front surface of the leaf faces upward. Seven pairs of adults of sweetpotato whitefly (type B) were inoculated in this container, and the container was placed in a temperature-controlled room at a temperature of 25° C. and a humidity of 65%. After 2 days, life and death were examined and the insecticidal rate was determined. The test was repeated twice.

Test [2] concerns Rice Armyworm (Mythimna Separata). Nature of the test: Efficacy test against rice armyworm, corn leaf dip. As to conditions: 125 ppm, emulsifiable concentrate diluted with water, corn leaves immersed, second instar larvae, after 5 days, 25° C. On the procedure:
as §1
The emulsifiable concentrate obtained according to Formulation of Formulation Example 2 was diluted with water so as to control the concentration of the compound to 125 ppm. Leaves of corn were immersed in this diluted solution for 30 seconds and then air-dried. The leaves were put in a petri dish on which a filter paper is laid, and then five second instar larvae of rice armyworm were inoculated. After covering the petri dish with a glass lid, the petri dish was placed in a temperature-controlled room at a temperature of 25° C. and a humidity of 65%. After 5 days, life and death were examined and the insecticidal rate was determined. The test was repeated twice.

Test [3] deals with Cotton Aphid (Aphis Gossypii). The test is described as follows: Efficacy test against cotton aphid, spray on cucumber plant. As to conditions: 125 ppm, emulsifiable concentrate diluted with water, sprayed over cucumber plant with nymphs, after 5 days, 25° C. On the procedure: as §1
The emulsifiable concentrate obtained according to Formulation of Formulation Example 2 was diluted with water so as to control the concentration of the compound to 125 ppm. Adults of cotton aphids were inoculated to a cucumber plant (approximately 10 days after sprouting) sown in a 3 sun/size pot (9 cm). After 1 day, adult aphids were removed and the diluted solution was sprayed over the cucumber plant on which delivered nymphs are parasitic. The pot was placed in a temperature-controlled room at a temperature of 25° C. and a humidity of 65%. After 5 days, life and death were examined and the insecticidal rate was determined. The test was repeated twice.

Structures are written as SMILES.

Turning to `C=C1SC(=Nc2ccc(C)cc2)C(=CSc2ccc3ccccc3c2)CC1(C)C` (mixture of isomers) [Compound 2-88], the insecticidal rate in test [1] and in test [2] was 100% throughout.
Consider `C=C1SC(=Nc2ccc(C)cc2)C(=CSc2ccc([N+](=O)[O-])cc2)CC1(C)C` (mixture of isomers) [Compound 6-4], for which, in test [2], the insecticidal rate amounted to 100%.
On to `C=C1SC(=Nc2ccc(C)cc2)C(=CSC2CCCCC2)CC1(C)C` (mixture of isomers) [Compound 6-5], for which the insecticidal rate in test [1] and in test [2] was 100% each time.
On to `C=C1SC(=Nc2ccc(C)cc2)C(=CSC2CCc3ccccc32)CC1(C)C` (racemic) [Compound 2-115], for which the insecticidal rate in test [1] and in test [2] was 100% throughout.
Take `C=C1SC(=Nc2ccc(OC)cc2)C(=CSc2ccccc2)CC1(C)CCC=C(C)C` (racemic) [Compound 2-130]: the insecticidal rate in test [1] and in test [2] was 100% throughout.
Take `CC(C)=C1CC(=CSc2ccccc2)C(=Nc2ccc(Cl)cc2)S1` [Compound 1-2]: the insecticidal rate in test [1] and in test [2] was 100% each time.
For the compound `CC(C)=C1CC(=CSc2ccccc2)C(=[NH+]c2ccc(Cl)cc2)S1.F[B-](F)(F)F` [Compound 1-3], the insecticidal rate in test [1] and in test [2] was 100% each time.
Take `C=C1CCC(=CSc2ccccc2)C(=Nc2ccc(Cl)cc2)S1` [Compound 2-1]: the insecticidal rate in test [1] and in test [2] was 100% each time.
Take `C=C1CCC(=CSc2ccccc2)C(=Nc2ccc(C(F)(F)F)cc2)S1` [Compound 2-5]: the insecticidal rate in test [1] and in test [2] was 100% throughout.
Compound `C=C1CCC(=CSc2ccccn2)C(=Nc2ccc(C)cc2)S1` [Compound 2-7] displayed an insecticidal rate in test [3] of 100%.
In the case of `C=C1CCC(=CSc2ccccc2)C(=Nc2ccc(OC)cc2)S1` [Compound 2-8], the insecticidal rate in test [1], in test [3] and in test [2] was 100% throughout.
`C=C1CCC(=CSc2ccc(F)cc2)C(=Nc2ccc(OC)cc2)S1` [Compound 2-9]: the insecticidal rate in test [1], in test [3] and in test [2] was 100% in each case.
For the compound `C=C1SC(=Nc2ccc(OC)cc2)C(=CSc2ccccc2)CC1(C)C` [Compound 2-16], the insecticidal rate in test [1], in test [3] and in test [2] was 100% in each case.
On to `C=C1SC(=Nc2ccc(C)cc2)C(=CSc2ccc(OC)cc2)CC1(C)C` [Compound 2-18], for which the insecticidal rate in test [1], in test [3] and in test [2] was 100% each time.
With `C=C1SC(=Nc2ccc(C)cc2)C(=CSc2ccccc2OC)CC1(C)C` [Compound 2-19], the insecticidal rate in test [1], in test [3] and in test [2] was 100% each time.
In turn, `C=C1SC(=Nc2ccc(C)cc2)C(=CSc2ccc(NC(C)=O)cc2)CC1(C)C` [Compound 2-21] came in with an insecticidal rate in test [2] of 100%.
`COc1ccc(N=C2SC(=C(C)C)CCC2=CSc2ccc(F)cc2)cc1` [Compound 2-22]: the insecticidal rate in test [1], in test [3] and in test [2] was 100% each time.
In turn, `COc1ccc(N=C2SC(=C(C)C)CCC2=CSc2ccccc2)cc1` [Compound 2-23] had an insecticidal rate in test [3] of 100%.
For `C=C1SC(=Nc2ccc(C)cc2)C(=CSc2ccc(F)cc2)CC12CCCCC2` [Compound 2-24], the insecticidal rate in test [1] and in test [2] was 100% in each case.
Consider `C=C1SC(=Nc2cccc(OC)c2)C(=CSc2ccccc2)CC1(C)C` [Compound 2-25], for which the insecticidal rate in test [1], in test [3] and in test [2] was 100% in each case.
Turning to `C=C1SC(=Nc2ccc(C)cc2Cl)C(=CSc2ccccc2)CC1(C)C` [Compound 2-26], the insecticidal rate in test [1], in test [3] and in test [2] was 100% each time.
As to `C=C1SC(=Nc2cccc(Cl)c2)C(=CSc2ccccc2)CC1(C)C` [Compound 2-29], the insecticidal rate in test [1], in test [3] and in test [2] was 100% in each case.
On to `C=C1SC(=Nc2ccc(OC)cc2OC)C(=CSc2ccccc2)CC1(C)C` [Compound 2-30], for which the insecticidal rate in test [3] and in test [2] was 100% throughout.
Consider `C=C1SC(=Nc2c(F)cccc2F)C(=CSc2ccccc2)CC1(C)C` [Compound 2-31], for which the insecticidal rate in test [1], in test [3] and in test [2] was 100% in each case.
For the compound `C=C1SC(=Nc2ccc(OC)cc2F)C(=CSc2ccccc2)CC1(C)C` [Compound 2-33], the insecticidal rate in test [1], in test [3] and in test [2] was 100% each time.
With `C=C1SC(=Nc2cccc(Cl)c2Cl)C(=CSc2ccccc2)CC1(C)C` [Compound 2-37], the insecticidal rate in test [1], in test [3] and in test [2] was 100% throughout.
Consider `C=C1SC(=Nc2ccc3c(c2)OCO3)C(=CSc2ccccc2)CC1(C)C` [Compound 2-39], for which the insecticidal rate in test [1], in test [3] and in test [2] was 100% throughout.
Turning to `C=C1SC(=Nc2ccc(OC)cc2C)C(=CSc2ccc(OC)cc2)CC1(C)C` [Compound 2-42], the insecticidal rate in test [1], in test [3] and in test [2] was 100% in each case.
`COc1ccc(N=C2SC(=C(C)C)CCC2=CSc2ncccn2)cc1` [Compound 2-43] gave an insecticidal rate in test [2] of 100%.
For `C=C1SC(=Nc2cc(Cl)ccc2Cl)C(=CSc2ccccc2)CC1(C)C` [Compound 2-44], the insecticidal rate in test [1] and in test [2] was 100% throughout.
Regarding `C=C1SC(=Nc2ccc(OC)cc2)C(=CSc2ncccn2)CC1(C)C` [Compound 2-47], the insecticidal rate in test [1], in test [3] and in test [2] was 100% each time.
For the compound `C=C1SC(=Nc2ccc(C)cc2)C(=CSC(C)(C)C)CC1(C)C` [Compound 2-74], the insecticidal rate in test [1] and in test [2] was 100% each time.
Take `C=C1SC(=Nc2ccc(OC)cc2)C(=CSc2ccc(C=O)cc2)CC1(C)C` [Compound 2-82]: the insecticidal rate in test [2] turned out to be 100%.
`C=C1SC(=Nc2ccc(OC)cc2)C(=CSc2ccc(C(F)(F)F)cn2)CC1(C)C` [Compound 2-95]: the insecticidal rate in test [1] and in test [2] was 100% throughout.
As for `C=C1SC(=Nc2ccc(C)cc2)C(=CSc2ccccc2CO)CC1(C)C` [Compound 2-96], the insecticidal rate in test [2] was found to be 100%.
`C=C1SC(=Nc2ccc(OC)cc2)C(=CSc2cccc(Oc3ccccc3)c2)CC1(C)C` [Compound 2-109]: in test [1], the insecticidal rate turned out to be 100%.
In the case of `C=C1SC(=Nc2ccc(C)cc2)C(=CSc2sccc2OC)CC1(C)C` [Compound 2-116], the insecticidal rate in test [1] and in test [2] was 100% each time.
For `C=C1SC(=Nc2ccc(C)cc2)C(=CSc2cc(C)oc2C)CC1(C)C` [Compound 2-123], the insecticidal rate in test [1] and in test [2] was 100% each time.
For `C=C1SC(=Nc2ccc(C)cc2)C(=CSc2cc(C(F)(F)F)ccn2)CC1(C)C` [Compound 2-126], the insecticidal rate in test [3] and in test [2] was 100% each time.
Take `C=C1SC(=Nc2ccccc2)C(=CSc2nc(C)cnc2C)CC1(C)C` [Compound 2-131]: the insecticidal rate in test [1] and in test [2] was 100% throughout.
For the compound `C=C1SC(=Nc2ccc(C)cc2)C(=CSc2nccc(OC)n2)CC1(C)C` [Compound 2-133], the insecticidal rate in test [1] and in test [2] was 100% throughout.
`C=C1CCC(=CSc2ccccn2)C(=Nc2ccc(C)cc2)S1` [Compound 4-1]: in test [2], the insecticidal rate was 100%.
In turn, `C=C1SC(=Nc2ccc(OC)cc2)C(=CSc2ccccn2)CC1(C)C` [Compound 4-2] came in with an insecticidal rate in test [2] of 100%.
`C=C1SC(=Nc2ccc(C)cc2)C(=CSc2nccs2)CC1(C)C` [Compound 4-3] had an insecticidal rate in test [1] of 100%.
`C=C1SC(=Nc2ccc(OC)cc2)C(=CSc2cccs2)CC1(C)C` [Compound 4-4]: the insecticidal rate in test [1] and in test [2] was 100% throughout.
